Measured values taken from the supplement of paper PMC10307832.

Assays:
Assay in all cases: relative viability (nuclei count vs DMSO), 5 days (fraction); higher = more cells survive
[1] = compound: C[C@@H](C(=O)N[C@@H](C1CCCCC1)C(=O)N2CCC[C@H]2C(=O)N[C@@H]3[C@@H](CC4=CC=CC=C34)OCC#CC#CCO[C@@H]5CC6=CC=CC=C6[C@@H]5NC(=O)[C@@H]7CCCN7C(=O)[C@H](C8CCCCC8)NC(=O)[C@H](C)NC)NC [AZD5582] + CC(=O)c1c(C)c2cnc(Nc3ccc(N4CCNCC4)cn3)nc2n(C2CCCC2)c1=O [Palbociclib] (partner 0.5 µM)
How it was run: (§1)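 Nuclei were stained with Hoechst during a one-step fixation (final 0.05% Triton X-100, 1% formaldehyde, 1 ug/ml Hoechst) carried out 5 days after dosing, then counted on 4× images. The cells, lung cancer lines in 1536-well plates, had been dosed by pin tool the day after seeding with one drug alone or a fixed anchor-drug dose plus five library-drug doses (not always all listed) in √10 steps. Relative viability is the nuclei count in treated wells divided by that in vehicle wells, and each value is the median of duplicate plates.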

[2] = compound: C[C@@H](C(=O)N[C@@H](C1CCCCC1)C(=O)N2CCC[C@H]2C(=O)N[C@@H]3[C@@H](CC4=CC=CC=C34)OCC#CC#CCO[C@@H]5CC6=CC=CC=C6[C@@H]5NC(=O)[C@@H]7CCCN7C(=O)[C@H](C8CCCCC8)NC(=O)[C@H](C)NC)NC [AZD5582] + NC(=O)Nc1cc(-c2cccc(F)c2)sc1C(=O)N[C@H]1CCCNC1 [AZD7762] (partner 0.2 µM)
How it was run: as §1

[3] = compound: C[C@@H](C(=O)N[C@@H](C1CCCCC1)C(=O)N2CCC[C@H]2C(=O)N[C@@H]3[C@@H](CC4=CC=CC=C34)OCC#CC#CCO[C@@H]5CC6=CC=CC=C6[C@@H]5NC(=O)[C@@H]7CCCN7C(=O)[C@H](C8CCCCC8)NC(=O)[C@H](C)NC)NC [AZD5582] + CCNC(=O)c1noc(-c2cc(C(C)C)c(O)cc2O)c1-c1ccc(CN2CCOCC2)cc1 [Luminespib] (partner 0.01 µM)
How it was run: as §1

[4] = compound: Cn1nnc2c(C(N)=O)ncn2c1=O [Temozolomide] + CC(=O)c1c(C)c2cnc(Nc3ccc(N4CCNCC4)cn3)nc2n(C2CCCC2)c1=O [Palbociclib] (partner 0.5 µM)
How it was run: as §1

Cell Line | relative viability ([1]; first compound 0.001581 µM) | relative viability ([1]; first compound 0.005 µM) | relative viability ([1]; first compound 0.01581 µM) | relative viability ([1]; first compound 0.05 µM) | relative viability ([2]; first compound 0.001581 µM) | relative viability ([2]; first compound 0.005 µM) | relative viability ([2]; first compound 0.01581 µM) | relative viability ([2]; first compound 0.05 µM) | relative viability ([3]; first compound 0.001581 µM) | relative viability ([3]; first compound 0.005 µM) | relative viability ([3]; first compound 0.01581 µM) | relative viability ([3]; first compound 0.05 µM) | relative viability ([4]; first compound 0.2 µM) | relative viability ([4]; first compound 0.6325 µM) | relative viability ([4]; first compound 2 µM) | relative viability ([4]; first compound 6.325 µM) | relative viability ([4]; first compound 20 µM)
201T | 0.375 | 0.357 | 0.316 | 0.43 | 0.479 | 0.579 | 0.556 | 0.447 | 1.11 | 1.17 | 0.99 | 1.23 | 0.348 | 0.361 | 0.382 | 0.362 | 0.355
A-427 | 0.462 | 0.473 | 0.528 | 0.495 | 0.682 | 0.703 | 0.748 | 0.637 | 0.665 | 0.845 | 0.906 | 0.897 | 0.519 | 0.575 | 0.518 | 0.492 | 0.427
ABC-1 | 0.658 | 0.834 | 0.492 | 0.625 | 0.59 | 1.13 | 0.72 | 0.572 | 0.518 | 0.243 | – | 0.369 | 0.639 | 0.777 | 0.707 | 0.65 | 0.65
BEN | 0.416 | 0.466 | 0.497 | 0.435 | 0.74 | 0.701 | 0.866 | 0.619 | 0.332 | 0.325 | 0.634 | 0.392 | 0.483 | 0.466 | 0.469 | 0.487 | 0.471
CAL-12T | 0.2 | 0.225 | 0.309 | 0.159 | 0.423 | 0.468 | 0.485 | 0.405 | 0.192 | 0.298 | 0.401 | 0.326 | 0.285 | 0.568 | 0.608 | 0.484 | 0.405
COR-L23 | 0.238 | 0.329 | 0.269 | 0.305 | – | – | – | – | 0.635 | 0.739 | 0.65 | 0.926 | 0.383 | 0.398 | 0.311 | 0.266 | 0.269
COR-L 105 | 0.383 | 0.394 | 0.415 | 0.452 | – | – | – | – | 0.619 | 0.728 | 0.837 | 0.862 | 0.433 | 0.446 | 0.402 | 0.383 | 0.33
HCC-78 | 0.435 | 0.474 | 0.474 | 0.432 | 0.691 | 0.601 | 0.468 | 0.417 | – | – | – | – | 0.474 | 0.475 | 0.458 | 0.473 | 0.487
HCC-366 | 0.347 | 0.319 | 0.322 | 0.43 | 0.132 | 0.285 | 0.33 | 0.41 | – | – | – | – | 0.449 | 0.467 | 0.341 | 0.396 | 0.369
NCI-H520 | 0.193 | 0.256 | 0.238 | 0.223 | – | – | – | – | 0.228 | 0.276 | 0.247 | 0.212 | 0.215 | 0.225 | 0.228 | 0.278 | 0.243
NCI-H596 | – | – | – | – | 1.07 | – | 1.11 | 0.38 | – | – | 0.931 | 0.551 | – | – | – | – | –
NCI-H661 | 0.403 | 0.44 | 0.464 | 0.429 | – | – | – | – | 0.898 | 0.894 | 0.907 | 0.853 | 0.344 | 0.393 | 0.437 | 0.411 | 0.402
NCI-H1563 | – | – | – | – | – | – | – | – | 0.509 | 0.551 | 0.52 | 0.52 | – | – | – | – | –
NCI-H1623 | – | – | – | – | – | – | – | – | 0.405 | 0.551 | 0.572 | 0.543 | – | – | – | – | –
NCI-H1648 | 0.264 | 0.311 | – | 0.274 | 0.462 | 0.649 | – | 0.626 | – | – | – | – | – | 0.23 | 0.318 | 0.273 | 0.283
NCI-H1650 | 0.37 | 0.43 | 0.334 | 0.328 | – | – | – | – | 0.2 | 0.21 | 0.189 | 0.211 | 0.339 | 0.406 | 0.362 | 0.355 | 0.28
NCI-H2009 | 0.24 | 0.225 | 0.184 | 0.203 | – | – | – | – | 0.959 | 0.987 | 1.02 | 1.09 | 0.274 | 0.217 | 0.238 | 0.224 | 0.225
NCI-H2023 | 0.35 | 0.469 | 0.359 | 0.4 | – | – | – | – | 0.745 | 0.615 | 0.788 | 0.65 | 0.407 | 0.377 | 0.377 | 0.379 | 0.346
NCI-H2228 | 0.674 | 0.706 | 0.84 | 0.127 | – | – | – | – | 0.136 | 0.205 | 0.144 | 0.15 | 0.918 | 1.03 | 0.809 | 0.798 | 0.614
SK-LU-1 | 0.333 | 0.366 | 0.331 | 0.247 | – | – | – | – | 0.191 | 0.185 | 0.194 | 0.177 | 0.382 | 0.397 | 0.431 | 0.33 | 0.318
SK-MES-1 | 0.286 | 0.32 | 0.332 | 0.291 | – | – | – | – | 0.773 | 0.925 | 0.683 | 0.956 | 0.328 | 0.312 | 0.332 | 0.353 | 0.332
SW 1573 | 0.352 | 0.451 | 0.402 | 0.407 | – | – | – | – | 0.19 | 0.248 | 0.478 | 0.285 | 0.502 | 0.44 | 0.467 | 0.4 | 0.429
UMC-11 | 0.345 | 0.324 | 0.394 | 0.339 | – | – | – | – | 0.933 | 1.23 | 1.06 | 1.14 | 0.312 | 0.38 | 0.3 | 0.286 | 0.321
